The subject of one assay is Mycobacterium avium. Description: Antimycobacterial activity against Mycobacterium avium 101 by CLSI method. In kind it is functional.
The subject of assay [1] is Mycobacterium intracellulare. Description: Antimycobacterial activity against Mycobacterium intracellulare 1956 by CLSI method. It counts as functional.
In assay [2] the test system is Mycobacterium tuberculosis. Description: Antimycobacterial activity against Mycobacterium tuberculosis H37Rv MC2 6206 by CLSI method. It counts as functional.
Assay [3] relates to Mycobacteroides abscessus. Nature of the assay: Antimycobacterial activity against Mycobacterium abscessus 1 by CLSI method. In kind it is functional.
Assay [4] has as its system Mycobacteroides abscessus. Nature of the assay: Antimycobacterial activity against Mycobacterium abscessus 21 by CLSI method. It counts as functional.
In assay [5] the test system is Mycobacteroides abscessus. Description: Antimycobacterial activity against Mycobacterium abscessus 79 by CLSI method. In kind it is functional.
The test system of assay [6] is Mycobacteroides abscessus. Description: Antimycobacterial activity against Mycobacterium abscessus 103 by CLSI method. In kind it is functional.
Assay [7] deals with Mycobacteroides abscessus. Description: Antimycobacterial activity against Mycobacterium massiliense 119 by CLSI method. It counts as functional, Mycobacterium abscessus subsp. massiliense.
For another assay, the system named is Mycobacteroides chelonae. Nature of the assay: Antimycobacterial activity against Mycobacterium chelonae 93 by CLSI method. It counts as functional.
For assay [8], the system named is Mycolicibacterium fortuitum. Nature of the assay: Antimycobacterial activity against Mycobacterium fortuitum 41 by CLSI method. In kind it is functional.
Assay [9] relates to Mycolicibacterium peregrinum. Nature of the assay: Antimycobacterial activity against Mycobacterium peregrinum ATCC 700686 by CLSI method. It counts as functional.
Assay [10] has as its system Mycobacteroides abscessus. Nature of the assay: Antimycobacterial activity against Mycobacterium abscessus ATCC 19977 by CLSI method. It counts as functional.

Values after ≈ are worked out from the molar mass of the structure shown.

As for `CC1CC(C(=O)Nc2nc3cccc(F)c3s2)CC(C)(C)C1` (configuration not stated), the MIC – broadly, the lowest concentration found to suppress growth – worked out at 8 µg/mL (≈ 25 µM) in the assay with Mycobacterium avium; 16 µg/mL (≈ 49.9 µM) in assay [1]; 1 µg/mL (≈ 3.12 µM) in [2]; 0.5 µg/mL (≈ 1.56 µM) in assay [3]; 0.25 µg/mL (≈ 0.78 µM) in [4]; 0.25 µg/mL (≈ 0.78 µM) in assay [5]. The MIC worked out at 0.5 µg/mL (≈ 1.56 µM) in assay [6]; 0.25 µg/mL (≈ 0.78 µM) in assay [7]; 0.5 µg/mL (≈ 1.56 µM) with Mycobacteroides chelonae; 0.12 µg/mL (≈ 0.374 µM) in assay [8]; 0.06 µg/mL (≈ 0.187 µM) in [9].

Consider `CC1CC(C(=O)Nc2nc3ccccc3s2)CC(C)(C)C1` (configuration not stated), for which the MIC in the assay on Mycobacterium avium came out at 8 µg/mL (≈ 26.5 µM); in [1], 8 µg/mL (≈ 26.5 µM); in [2] it was 8 µg/mL (≈ 26.5 µM); in assay [3], 2 µg/mL (≈ 6.61 µM); in assay [4] it was 2 µg/mL (≈ 6.61 µM); in [5] it was 1 µg/mL (≈ 3.31 µM). Moreover, the MIC in assay [6] came to 1 µg/mL (≈ 3.31 µM); in assay [7], 2 µg/mL (≈ 6.61 µM); in the assay on Mycobacteroides chelonae, 1 µg/mL (≈ 3.31 µM); in [8], 1 µg/mL (≈ 3.31 µM); in assay [9], 0.5 µg/mL (≈ 1.65 µM).

For the molecule `CC12CCCC(C(=O)Nc3nc4cc(Br)ccc4s3)(CCC1)C2`, the MIC against Mycobacterium avium is 4 µg/mL (≈ 10.2 µM); in assay [1], 1 µg/mL (≈ 2.54 µM); in assay [2] it was not above 0.12 µg/mL; in assay [3], 0.25 µg/mL (≈ 0.636 µM); in [4], 0.06 µg/mL (≈ 0.153 µM); in assay [5], 0.06 µg/mL (≈ 0.153 µM). The minimal inhibitory concentration (MIC) in assay [6] was 0.06 µg/mL (≈ 0.153 µM); in assay [7] it was 0.06 µg/mL (≈ 0.153 µM); in the assay on Mycobacteroides chelonae it was 0.06 µg/mL (≈ 0.153 µM); in [8] it was 0.03 µg/mL (≈ 0.0763 µM); in assay [9] it was not above 0.07 µg/mL.

Consider `CC1CC(C(=O)Nc2nc3c(F)c(F)c(F)cc3s2)CC(C)(C)C1` (configuration not stated), for which the MIC against Mycobacterium avium was more than 64 µg/mL; in [1] it was more than 64 µg/mL; in assay [2], 1 µg/mL (≈ 2.81 µM); in assay [3], 0.5 µg/mL (≈ 1.4 µM); in assay [4], 0.5 µg/mL (≈ 1.4 µM); in [5] it was 0.25 µg/mL (≈ 0.701 µM). Moreover, the minimal inhibitory concentration (MIC) in [6] turned out to be 0.5 µg/mL (≈ 1.4 µM); in assay [7], 0.5 µg/mL (≈ 1.4 µM); with Mycobacteroides chelonae, 0.25 µg/mL (≈ 0.701 µM); in [8] it was 0.25 µg/mL (≈ 0.701 µM); in assay [9], 0.12 µg/mL (≈ 0.337 µM).

`CC1CC(C(=O)Nc2nc3ccc(F)cc3s2)CC(C)(C)C1` (configuration not stated): the minimal inhibitory concentration (MIC) stood at 8 µg/mL (≈ 25 µM) with Mycobacterium avium; 8 µg/mL (≈ 25 µM) in assay [1]; 4 µg/mL (≈ 12.5 µM) in [2]; 0.5 µg/mL (≈ 1.56 µM) in assay [3]; 0.5 µg/mL (≈ 1.56 µM) in assay [4]; 0.5 µg/mL (≈ 1.56 µM) in [5]. The minimal inhibitory concentration (MIC) amounted to 0.25 µg/mL (≈ 0.78 µM) in assay [6]; 0.25 µg/mL (≈ 0.78 µM) in [7]; 0.25 µg/mL (≈ 0.78 µM) in the assay on Mycobacteroides chelonae; 0.25 µg/mL (≈ 0.78 µM) in assay [8]; 0.06 µg/mL (≈ 0.187 µM) in assay [9].

Consider `CC1CCC(C(=O)Nc2nc3ccc(C(F)(F)F)cc3s2)CC1` (configuration not stated), for which the figures for the MIC (in assay [10]; against Mycobacterium avium; in assay [1]) were 64 µg/mL (≈ 187 µM), more than 64 µg/mL and more than 64 µg/mL, respectively.

For the molecule `O=C(Nc1nc2ccc(C(F)(F)F)cc2s1)C1CC2CCC1C2` (configuration not stated), the MIC in [10] is more than 64 µg/mL; in the assay with Mycobacterium avium it was 32 µg/mL (≈ 94 µM); in assay [1] it was 32 µg/mL (≈ 94 µM).

As for `CC1(C)CCC(C(=O)Nc2nc3ccc(C(F)(F)F)cc3s2)CC1`, the values for the MIC (in assay [10]; with Mycobacterium avium; in assay [1]) were more than 64 µg/mL, 64 µg/mL (≈ 180 µM) and 64 µg/mL (≈ 180 µM), respectively.

With `CC1CC(C(=O)Nc2nc3cc(Cl)cc(Cl)c3s2)CC(C)(C)C1` (configuration not stated), the MIC against Mycobacterium avium was 8 µg/mL (≈ 21.5 µM); in [1], 16 µg/mL (≈ 43.1 µM); in [2], 1 µg/mL (≈ 2.69 µM); in assay [4] it was 0.25 µg/mL (≈ 0.673 µM); in assay [5], 0.12 µg/mL (≈ 0.323 µM); in [6], 0.5 µg/mL (≈ 1.35 µM). Moreover, the MIC in assay [7] amounted to 0.25 µg/mL (≈ 0.673 µM); against Mycobacteroides chelonae it was 0.12 µg/mL (≈ 0.323 µM); in [8], 0.25 µg/mL (≈ 0.673 µM); in [9] it was 0.12 µg/mL (≈ 0.323 µM).

Consider `CC1CC(C(=O)Nc2nc3ccc(N(C)C)cc3s2)CC(C)(C)C1` (configuration not stated), for which the minimum inhibitory concentration (MIC) in [10] is 32 µg/mL (≈ 92.6 µM); against Mycobacterium avium, more than 64 µg/mL; in assay [1], more than 64 µg/mL; in assay [3], more than 64 µg/mL; in assay [4] it was 16 µg/mL (≈ 46.3 µM); in [5], 8 µg/mL (≈ 23.2 µM). The MIC in [6] stood at 64 µg/mL (≈ 185 µM); in assay [7], 4 µg/mL (≈ 11.6 µM); against Mycobacteroides chelonae it was 2 µg/mL (≈ 5.79 µM); in [8], 8 µg/mL (≈ 23.2 µM); in assay [9], 2 µg/mL (≈ 5.79 µM).

With `CC12CCCC(C(=O)Nc3nc4c(F)c(F)c(F)cc4s3)(CCC1)C2`, the MIC is more than 8 µg/mL with Mycobacterium avium; 8 µg/mL (≈ 21.7 µM) in assay [1]; not above 0.12 µg/mL in assay [2]; 0.25 µg/mL (≈ 0.679 µM) in [3]; 0.12 µg/mL (≈ 0.326 µM) in assay [4]; 0.12 µg/mL (≈ 0.326 µM) in assay [5]. Further, the MIC in [6] amounted to 0.12 µg/mL (≈ 0.326 µM); in [7], 0.12 µg/mL (≈ 0.326 µM); against Mycobacteroides chelonae, 0.12 µg/mL (≈ 0.326 µM); in assay [8], 0.5 µg/mL (≈ 1.36 µM); in assay [9] it was 0.06 µg/mL (≈ 0.163 µM).

Turning to `O=C(Nc1nc2ccc(C(F)(F)F)cc2s1)C1CCC2(CC1)CC2`, the MIC in assay [10] was 32 µg/mL (≈ 90.3 µM); with Mycobacterium avium, 64 µg/mL (≈ 181 µM); in assay [1], more than 64 µg/mL; in [2], 32 µg/mL (≈ 90.3 µM); in assay [3], 8 µg/mL (≈ 22.6 µM); in assay [4] it was 16 µg/mL (≈ 45.1 µM). For the same molecule, the MIC in assay [5] is 16 µg/mL (≈ 45.1 µM); in assay [7], 8 µg/mL (≈ 22.6 µM); against Mycobacteroides chelonae, 4 µg/mL (≈ 11.3 µM); in assay [8], more than 64 µg/mL; in assay [9], more than 64 µg/mL.
